Laboratory results: US20020115619A1, “Compositions and methods for treatment of cystic fibrosis” (priority 2000, published 2002)

Tests used:
[1] = molecular target: T1, ΔF508-CFTR (Homo sapiens, UniProt P13569, DEL508-508); conditions: cited from earlier work
[2] = 16 milligrams per kilogram per day, oral; cited from earlier work
[3] = molecular target: T2, G551D (Homo sapiens, UniProt P13569, G551D); conditions: G551D patients; standard deviation 1.2 mV; cited from earlier work
T2 construct: host or cells: nasal epithelium of CF patients carrying G551D (endogenous protein)

[4] = test system: rat αβγENaC; assay: Amiloride-sensitive whole-cell current in Xenopus oocytes injected with αβγENaC cRNAs; assay type: cell-based
Protocol: (§1) Human WT-CFTR, human ΔF508-CFTR, and mouse α−, β−and γ ENaC cRNAs were prepared using a cRNA synthesis kit (m-MESSAGE mMACHINE, Ambion Inc, Austin, Tex.) according to the manufacturer's protocol. cRNA concentrations were determined spectroscopically. Oocytes obtained from adult female Xenopus laevis (NASCO Fort Atkinson, Wis.) were defolliculated and maintained at 18° C. in modified Barth's saline (88 mM NaCl, 1 mM KCl, 2.4 mM NaHCO3, 15 mM Hepes pH 7.6, 0.3 mM Ca(NO3)2, 0.41 mM CaCl2, 0.82 MM MgSO4, 10 μg/ml sodium penicillin, 10 μg/ml streptomycin sulfate, 100 μg/ml gentamicin sulfate). […]
(§2) Whole-cell current measurements were made 24 to 48 hours after injection using the two-electrode voltage clamp method (GeneClamp 500 amplifier-Axon Instruments, Foster City, Calif.). […] The whole-cell currents were measured by voltage clamping the oocytes in 20 mV steps between −140 mV to +60 mV adjusted for baseline transmembrane potential. Whole cell currents (I) were digitized at 200 Hz during the voltage steps, recorded directly onto a hard disk and analyzed using pClamp 8 software (Axon Instruments, Foster City, Calif.). […]
The difference in whole-cell currents measured in the absence and presence of 10 μM amiloride was used to define the amiloride-sensitive Na^+current that was mediated by ENaC. […] Whole-cell currents were measured at −100 mV. […]

[5] = molecular target: T1, ΔF508-CFTR; assay: Two-electrode voltage clamp whole-cell current in Xenopus oocytes injected with ΔF508-CFTR cRNA; assay type: cell-based; design: expressed in transfected cells; host or cells: Xenopus laevis oocytes, cRNA injection (10 ng); conditions: −100 mV, FIG. 8
Protocol: as §1, §2
(§3) The difference in whole-cell currents measured in the absence and presence of 10 μM amiloride was used to define the amiloride-sensitive Na^+current that was mediated by ENaC. […]

[6] = molecular target: T3, human WT-CFTR (Homo sapiens, UniProt P13569); assay: Two-electrode voltage clamp whole-cell current in Xenopus oocytes injected with WT-CFTR cRNA; assay type: cell-based; conditions: FIG. 9
T3 construct: expressed in transfected cells; host or cells: Xenopus laevis oocytes, cRNA injection (10 ng)
Protocol: as §1, §2, §3

[7] = cited from earlier work

T1 sequence (P13569 with tags, fused parts or gaps DEL508-508): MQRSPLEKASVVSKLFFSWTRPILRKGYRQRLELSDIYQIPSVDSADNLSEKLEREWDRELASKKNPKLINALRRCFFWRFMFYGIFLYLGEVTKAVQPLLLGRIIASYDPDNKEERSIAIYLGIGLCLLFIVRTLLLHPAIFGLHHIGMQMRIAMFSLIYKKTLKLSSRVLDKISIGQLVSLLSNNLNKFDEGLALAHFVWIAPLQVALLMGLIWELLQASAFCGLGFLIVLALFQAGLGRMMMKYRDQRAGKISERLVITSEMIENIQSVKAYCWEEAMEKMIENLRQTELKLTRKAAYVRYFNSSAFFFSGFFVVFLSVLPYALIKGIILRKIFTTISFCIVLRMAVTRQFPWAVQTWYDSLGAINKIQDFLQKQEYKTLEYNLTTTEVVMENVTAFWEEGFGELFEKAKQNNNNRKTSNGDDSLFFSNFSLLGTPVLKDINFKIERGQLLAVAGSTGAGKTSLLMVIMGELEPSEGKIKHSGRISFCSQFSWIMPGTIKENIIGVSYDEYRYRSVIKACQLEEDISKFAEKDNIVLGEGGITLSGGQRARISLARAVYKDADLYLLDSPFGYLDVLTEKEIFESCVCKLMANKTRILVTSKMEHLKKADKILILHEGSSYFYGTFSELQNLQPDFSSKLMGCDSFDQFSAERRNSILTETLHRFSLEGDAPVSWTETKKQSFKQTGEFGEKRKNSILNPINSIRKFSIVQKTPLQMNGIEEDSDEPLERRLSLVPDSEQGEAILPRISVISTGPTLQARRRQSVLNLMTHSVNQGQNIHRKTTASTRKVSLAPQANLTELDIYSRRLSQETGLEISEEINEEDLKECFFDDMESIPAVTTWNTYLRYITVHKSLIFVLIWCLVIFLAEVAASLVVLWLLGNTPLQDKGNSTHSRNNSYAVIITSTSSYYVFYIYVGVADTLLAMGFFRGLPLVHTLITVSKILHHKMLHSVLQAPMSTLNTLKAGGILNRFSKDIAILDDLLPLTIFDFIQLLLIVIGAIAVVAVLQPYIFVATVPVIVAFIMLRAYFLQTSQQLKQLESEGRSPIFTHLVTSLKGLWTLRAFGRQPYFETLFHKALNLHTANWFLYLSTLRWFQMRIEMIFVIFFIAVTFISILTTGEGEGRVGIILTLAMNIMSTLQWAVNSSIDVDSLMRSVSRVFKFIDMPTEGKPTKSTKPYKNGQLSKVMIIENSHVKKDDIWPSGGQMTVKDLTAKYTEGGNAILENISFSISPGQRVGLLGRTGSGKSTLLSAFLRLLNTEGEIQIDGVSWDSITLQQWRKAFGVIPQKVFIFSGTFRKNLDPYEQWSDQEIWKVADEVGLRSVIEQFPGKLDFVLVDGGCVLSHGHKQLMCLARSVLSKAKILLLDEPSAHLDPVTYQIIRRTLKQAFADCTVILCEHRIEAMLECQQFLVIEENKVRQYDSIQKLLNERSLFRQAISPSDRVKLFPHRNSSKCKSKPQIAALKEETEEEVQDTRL
T3 sequence (P13569 whole entry): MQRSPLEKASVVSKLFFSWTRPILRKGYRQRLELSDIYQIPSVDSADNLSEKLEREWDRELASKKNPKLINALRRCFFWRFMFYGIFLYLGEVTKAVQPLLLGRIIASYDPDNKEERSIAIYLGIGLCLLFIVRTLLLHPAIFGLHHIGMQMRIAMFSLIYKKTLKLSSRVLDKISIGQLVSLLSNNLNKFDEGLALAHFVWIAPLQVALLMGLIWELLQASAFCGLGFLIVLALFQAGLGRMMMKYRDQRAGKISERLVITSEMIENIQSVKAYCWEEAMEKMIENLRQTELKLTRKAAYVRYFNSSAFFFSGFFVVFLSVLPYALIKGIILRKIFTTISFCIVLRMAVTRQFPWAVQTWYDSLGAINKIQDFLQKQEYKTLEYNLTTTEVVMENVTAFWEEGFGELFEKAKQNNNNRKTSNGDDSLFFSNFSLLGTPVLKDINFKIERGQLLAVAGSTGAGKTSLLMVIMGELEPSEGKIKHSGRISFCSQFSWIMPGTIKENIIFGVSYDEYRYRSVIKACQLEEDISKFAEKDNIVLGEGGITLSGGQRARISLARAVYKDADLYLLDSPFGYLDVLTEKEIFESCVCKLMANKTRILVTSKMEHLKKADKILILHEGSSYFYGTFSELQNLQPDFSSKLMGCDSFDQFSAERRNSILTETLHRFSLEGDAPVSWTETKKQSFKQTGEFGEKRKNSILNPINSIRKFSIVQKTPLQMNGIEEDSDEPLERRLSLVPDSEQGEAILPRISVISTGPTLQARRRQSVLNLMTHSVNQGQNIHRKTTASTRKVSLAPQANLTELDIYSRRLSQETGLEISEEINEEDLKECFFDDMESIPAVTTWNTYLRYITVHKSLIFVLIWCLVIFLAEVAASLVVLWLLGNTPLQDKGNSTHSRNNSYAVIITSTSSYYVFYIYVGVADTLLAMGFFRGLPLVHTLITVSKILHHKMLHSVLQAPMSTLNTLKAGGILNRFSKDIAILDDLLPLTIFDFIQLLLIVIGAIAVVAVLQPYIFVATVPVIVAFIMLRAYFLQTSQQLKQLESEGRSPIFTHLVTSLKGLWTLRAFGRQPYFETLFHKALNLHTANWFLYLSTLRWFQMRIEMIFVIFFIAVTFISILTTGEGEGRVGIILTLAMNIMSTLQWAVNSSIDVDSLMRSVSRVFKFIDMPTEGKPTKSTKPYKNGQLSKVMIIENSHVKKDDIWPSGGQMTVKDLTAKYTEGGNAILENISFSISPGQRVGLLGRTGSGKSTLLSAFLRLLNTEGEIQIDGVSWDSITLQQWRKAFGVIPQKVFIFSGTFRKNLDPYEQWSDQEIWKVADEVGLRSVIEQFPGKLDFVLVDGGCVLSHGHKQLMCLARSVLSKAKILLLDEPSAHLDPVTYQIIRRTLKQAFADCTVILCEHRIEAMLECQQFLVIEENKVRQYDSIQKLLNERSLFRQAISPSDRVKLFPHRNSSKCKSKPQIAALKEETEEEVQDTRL
T2 sequence (P13569 whole entry G551D): as the sequence (P13569 whole entry) above, with G551D counted along it

Structure (SMILES): O=c1c(-c2ccc(O)cc2)coc2cc(O)cc(O)c12 [genistein]
- enhancement of cAMP-dependent activation of ΔF508-CFTR [1]: ≤ 20 fold
- activation of ΔF508-CFTR by the compound itself ([1]; without cAMP stimulation): does not activate ΔF508-CFTR by itself
- side effects in Phase I clinical trials [2]: no side effects noted
- average repolarization of the NPD during genistein perfusion [3]: 2.4 mV
- effect on amiloride-sensitive current of genistein alone or added before forskolin/IBMX ([4]; ENaC alone, unpublished data): decreased
- ΔF508-CFTR-mediated whole-cell current after forskolin/IBMX/genistein ([5]; 10 μM forskolin/100 μM IBMX/50 μM genistein, ΔF508-CFTR alone): 1.82±0.4 μA
- fold increase of forskolin/IBMX-stimulated ΔF508-CFTR-mediated current by addition of genistein ([5]; 50 μM genistein added to 10 μM forskolin/100 μM IBMX): 5 fold
- WT-CFTR whole-cell current after forskolin/IBMX plus genistein ([6]; 10 μM forskolin/100 μM IBMX/50 μM genistein): 2.57±0.45 μA
- fold increase of forskolin/IBMX-stimulated WT-CFTR current by addition of genistein ([6]; 50 μM genistein, −100 mV): 2 fold

Structure (SMILES): N=C(N)NC(=O)c1nc(Cl)c(N)nc1N [amiloride]
- inhibition of whole-cell current by amiloride ([4]; 10 μM amiloride, oocytes injected with αβγENaC): A large fraction of the current can be inhibited

Structure (SMILES): O=C(O)CCCc1ccccc1 [4PBA, 4-phenylbutyrate]
- commonly reported side effects in chronic therapy ([7]; FDA approved use, urea cycle disorders, 20 grams per day oral): mild stomach upset and an occasional bad taste in the mouth
- side effects related to 4PBA therapy during trial ([7]; pilot CF trial, 19 grams per day, one week): no significant side effects
